Source: patent EP4624454A1, “NON-COVALENT DIMER CATION, AND SALT THEREOF, PREPARATION METHOD THEREFOR AND USE THEREOF” (Suzhou Protonation Chain Biotechnology Co., Ltd, priority 2022, dated 2024)

Key:
[1] = system: SH-SY5Y human neuroblastoma cells; test: Parkinson's disease cell model (6-OHDA), cell viability; conditions: 24 h, read-out: Cell viability (%)
Description: A blank control group (without 6-OHDA) and a model group (with 6-OHDA but without the salt of this example or selegiline) were set.
SH-SY5Y human neuroblastoma cells were uniformly inoculated into a 96-well plate, about 5,000 cells per well. The cells were cultured in a complete DMEM/F12 medium for 6 h. After the cells were completely adhered to the wall, all the media were removed, 100 µL of serum-free DMEM/F12 medium, i.e., a cell culture solution, containing 150 µmol/L of 6-OHDA (a serum-free DMEM/F12 medium without 6-OHDA was added to the blank group), was added to each well, and the cells were incubated and cultured for 24 h.
Then, all the media were removed again, 100 µL of each of serum-free DMEM/ F12 media, i.e., cell culture solutions, containing 0.025 g/mL, 0.05 g/mL, 0.1 g/mL, 0.2 g/mL, 0.4 g/mL and 0.8 g/mL of compound of experimental or control groups (a serum-free DMEM/ F12 medium without compound of experimental or control groups was added to the blank group and a model group) were added to each well according to the groups, and the cells were cultured in a cell culture solution for 24 h.

[2] = system: GES-1 human gastric mucosal epithelial cells; test: cells; type: cell-based; conditions: GES1, 24 h, read-out: Cell viability (%)
Description: Long-term alcoholics were prone to gastric mucosal damage due to long-term alcohol damage.
A blank control group (without ethanol) and a model group (with ethanol but without the salt or glycyrrhetinic acid in the examples) were set.
The cells were cultured in a complete RPMI 1640 medium for 6 h.
Then, the cell viability was detected. […] Table 2 Cell viability of ethanol-induced damage models of gastric mucosal epithelial cells

How did the viability at 25 µg/mL [1] turn out when C#CCN(C)[C@H](C)Cc1ccccc1 [Selegiline, selegiline] was run?
The viability at 25 µg/mL was 33.4%.

What about the viability at 50 µg/mL [1] of the same compound?
Its viability at 50 µg/mL is 37.5%.

What about the viability at 100 µg/mL [1] of the same compound?
Its viability at 100 µg/mL is 43.3%.

What about the viability at 200 µg/mL [1] of the same compound?
The viability at 200 µg/mL was 49.9%.

And the viability at 400 µg/mL [1]?
Its viability at 400 µg/mL is 58.5%.

What about the viability at 800 µg/mL [1] of the same compound?
The viability at 800 µg/mL was 69.8%.

Which results are given for CC1(C)[C@@H](O)CC[C@]2(C)[C@H]3C(=O)C=C4[C@@H]5C[C@@](C)(C(=O)O)CC[C@]5(C)CC[C@@]4(C)[C@]3(C)CC[C@@H]12 [Glycyrrhetinic acid, glycyrrhetinic acid]?
viability at 25 µg/mL [2]: 59.4%; viability at 50 µg/mL [2]: 61.8%; viability at 100 µg/mL [2]: 64.3%; viability at 200 µg/mL [2]: 65.2%; viability at 400 µg/mL [2]: 68.9%; viability at 800 µg/mL [2]: 71.9%
